Results reported in patent US6461997B1, “Triazole sulfones having herbicidal activity” (Monsanto Technology LLC, priority 1999, dated 2002).

Assays:
[1] = test system: SASKR (russian thistle); assay: Post-emergence herbicidal activity, cool season; assay type: in vivo, Salsola kali; details: abraded plants sprayed; GR80 = lowest tested rate (300, 100, 30, 10 g/ha) with 80% or greater inhibition; approx. 14 days after treatment; 18/13° C.
Method: (§1) In another set of tests, the post-emergence activity of compounds of this invention was evaluated on the cool season species listed above. The following procedure was used.
(§2) A pre-prepared topsoil mixture (described above) was placed in a pot and compacted to a depth of 1.0 to 1.25 cm from the top of the pot. Seeds of each of several monocotyledonous and dicotyledonous annual plant species were placed on top of the soil. The seeds were covered with a mixture of 50% topsoil and 50% Rediearth™ in sufficient quantity to level-fill the pots. The pots were then placed on a greenhouse bench and subirrigated as needed.
(§3) When plants growing from the seeds had emerged and reached a suitable growth stage for post-emergence treatment, typically 9 to 14 days after planting, above-ground parts of the plants were subjected to a pre-treatment involving abrasion to create greater opportunity for foliar uptake of subsequently applied compounds. Abrasion was performed using garnet 200w particles applied with a Sears Craftsman hand-held sandblaster operated at approximately 850 kPa (50 psig) pressure. […]
(§4) After treatment the plants were placed in a greenhouse with an 18/13° C. day/night temperature regime and were subsequently watered as needed for growth. Approximately 14 days after treatment, the plants were observed and herbicidal efficacy recorded as percent inhibition by comparison with control plants. […]

[2] = test system: XANST (cocklebur); assay: Pre-emergence herbicidal activity, warm season; assay type: in vivo; details: Xanthium strumarium, pre-emergence application, read-out: Percent inhibition, weed XANST
Method: (§5) Tables 5 to 8 summarize results of tests conducted as described below to determine the pre-emergence herbicidal activity, in the form of a GR80 value, of illustrative compounds of this invention. […] Compounds of the invention were typically applied at rates of 300, 100, 30, and 10 g/ha. Where herbicidal activity was evident but 80% inhibition was not achieved at the highest rate tested, an asterisk (*) is shown in the following tables.
(§6) The pre-emergence tests were conducted by the following procedure. Topsoil was sieved to pass through a 1.27 cm screen. Fertilizer was added to the topsoil and the mixture was then sterilized by heating. The topsoil mixture was placed in a pot and compacted to a depth of 1.0 to 1.25 cm from the top of the pot. Seeds of each of several monocotyledonous and dicotyledonous annual plant species were placed on top of the soil. Additional soil was subsequently placed over the seeds to level-fill the pot. A known amount of each test compound dissolved or suspended in an appropriate organic solvent was diluted with a 50:50 mix of acetone and water and applied to the surface of the soil. After treatment the plants were placed in a greenhouse where they received 0.64 cm of overhead irrigation. All subsequent watering consisted of a light overhead mist and/or subirrigation as needed for germination and growth. Tables 5 and 6 below relate to warm season plant species which were placed after pre-emergence treatment in a greenhouse with a 30/21° C. day/night temperature regime. Tables 7 and 8 below relates to cool season plant species placed after pre-emergence treatment in a greenhouse or growth chamber with an 18/13° C. day/night temperature regime.
(§7) Approximately 14 days after planting and treating, the plants were observed and herbicidal efficacy recorded as percent inhibition by comparison with untreated plants.
(§8) The plant species usually regarded as weeds which were utilized in the tests are identified in the tables below according to the following legend, in which “d” indicates a dicotyledonous species and “m” a monocotyledonous species. All monocotyledonous species included in the tests herein are grasses.

[3] = test system: SEBEX; assay: Pre-emergence herbicidal activity, warm season (selectivity test, Table 15); assay type: in vivo; details: pre-emergence application, read-out: Percent inhibition, weed SEBEX
Method: as §6, §7
(§9) Additional pre-emergence and PPI tests were conducted by the procedures described above, on warm and cool season weed species in the presence of crop species, to assess herbicidal selectivity. Crop species included in warm season tests were corn (Zea mays, ZEAMX), rice (Oryza sativa, ORYSA) and soybean (Glycine max, GLYMX). Crop species included in cool season tests were wheat (Triticum aestivum, TRZAW), barley (Hordeunm vulgare, HORVX) and oilseed rape (Brassica napus, BRSNS).
(§10) Tables 15 and 16 relate to pre-emergence and PPI tests respectively on warm season species. Table 17 relates to pre-emergence tests on cool season species.

[4] = test system: SEBEX; assay: Pre-plant incorporated (PPI) herbicidal activity, warm season; assay type: in vivo; details: PPI application, read-out: Percent inhibition SEBEX
Method: as §9

[5] = test system: KCHSC (kochia); assay: Post-emergence herbicidal activity, cool season; assay type: in vivo, Kochia scoparia; details: abraded plants sprayed; GR80 = lowest tested rate (300, 100, 30, 10 g/ha) with 80% or greater inhibition; approx. 14 days after treatment; 18/13° C.
Method: as §1, §2, §3, §4

[6] = test system: rice (ORYSA); assay: Selectivity test, pre-emergence, warm season crop; assay type: in vivo; details: Oryza sativa, pre-emergence application, read-out: Percent inhibition, crop ORYSA
Method: as §6, §7, §9, §10

[7] = test system: corn (ZEAMX); assay: Selectivity test, pre-emergence, warm season crop; assay type: in vivo; details: Zea mays, pre-emergence application, read-out: Percent inhibition, crop ZEAMX
Method: as §6, §7, §9, §10

[8] = test system: soybean (GLYMX); assay: Selectivity test, pre-emergence, warm season crop; assay type: in vivo; details: Glycine max, pre-emergence application, read-out: Percent inhibition, crop GLYMX
Method: as §6, §7, §9, §10

[9] = test system: VERPE (creeping speedwell); assay: Post-emergence herbicidal activity, cool season; assay type: in vivo, Veronica persicaria; details: abraded plants sprayed; GR80 = lowest tested rate (300, 100, 30, 10 g/ha) with 80% or greater inhibition; approx. 14 days after treatment; 18/13° C.
Method: as §1, §2, §3, §4

[10] = test system: AEGCY (jointed goatgrass); assay: Pre-emergence herbicidal activity, cool season; assay type: in vivo, Aegilops cylindrica; details: GR80 = lowest tested rate (300, 100, 30, 10 g/ha) with 80% or greater inhibition; approx. 14 days after treating; 18/13° C.
Method: as §5, §6, §7, §8

| Structure (SMILES) | inhibition at 10 g/ha [2] [%] | inhibition at 30 g/ha [2] [%] | inhibition at 10 g/ha [3] [%] | inhibition at 30 g/ha [3] [%] | inhibition at 100 g/ha [3] [%] | inhibition at 300 g/ha [3] [%] | inhibition at 900 g/ha [3] [%] | inhibition at 10 g/ha [4] [%] | inhibition at 30 g/ha [4] [%] | inhibition at 300 g/ha [4] [%] | inhibition at 900 g/ha [4] [%] | Post-emergence activity (GR80) KCHSC [5] [g/ha] | inhibition at 10 g/ha [6] [%] | inhibition at 30 g/ha [6] [%] | inhibition at 100 g/ha [6] [%] | inhibition at 900 g/ha [6] [%] | inhibition at 10 g/ha [7] [%] | inhibition at 30 g/ha [7] [%] | inhibition at 100 g/ha [7] [%] | inhibition at 300 g/ha [7] [%] | other results |
| --- | --- | --- | --- | --- | --- | --- | --- | --- | --- | --- | --- | --- | --- | --- | --- | --- | --- | --- | --- | --- | --- |
| CCN(CC)C(=O)n1cnc(S(=O)(=O)C(F)F)n1 [Example 15, 1-(N,N-diethylcarbamoyl)-3-(difluoromethylsulfonyl)-1,2,4-triazole] | 0 | 0 | 0 | 0 | 0 | 0 | 35 | 0 | 0 | 0 | 50 | 100 | 0 | 0 | 0 | 0 | 0 | 0 | 0 | 0 | Post-emergence activity (GR80) SASKR [1]: 100 g/ha; inhibition at 100 g/ha ([2]; 100 g/ha): 0%; inhibition at 300 g/ha ([2]; 300 g/ha): 0%; inhibition at 300 g/ha ([6]; 300 g/ha): 0%; inhibition at 900 g/ha [7]: 0%; inhibition at 10 g/ha [8]: 0%; inhibition at 30 g/ha [8]: 0%; inhibition at 100 g/ha [8]: 0%; inhibition at 300 g/ha ([8]; 300 g/ha): 0%; inhibition at 900 g/ha [8]: 10% |
| CCN(CC)C(=O)n1cnc(S(=O)(=O)C(F)(F)Br)n1 [Example 1, 3-(bromodifluoromethylsulfonyl)-1-(N,N-diethylcarbamoyl)-1,2,4-triazole] | 0 | 0 | 0 | 0 | 0 | 0 | 0 | 0 | 0 | 0 | 20 | 100 | 0 | 0 | 0 | 10 | 0 | 0 | 0 | 0 | Post-emergence activity (GR80) VERPE [9]: 300 g/ha; inhibition at 100 g/ha ([4]; 100 g/ha): 0%; inhibition at 900 g/ha [7]: 10%; inhibition at 10 g/ha [8]: 0%; inhibition at 30 g/ha [8]: 0%; inhibition at 100 g/ha [8]: 0%; inhibition at 900 g/ha [8]: 0% |
| CCN(CC)C(=O)n1cnc(S(=O)(=O)C(F)(F)C(F)(F)Br)n1 [Example 4] |  |  |  |  |  |  |  |  |  |  |  |  |  |  |  |  |  |  |  |  | Pre-emergence activity (GR80) AEGCY [10]: * (activity observed, at least at highest rate, but <80% inhibition) |
